Source: US7951549B2, “Methods for the identification of agents that inhibit mesenchymal-like tumor cells or their formation” (OSI Pharmaceuticals, Inc., priority 2008, dated 2011)
“Also recorded” adds a separate entry of the source.

Tests used:
Type in all cases: cell-based, human
H358 cells [1] = assay: Ligand-induced EMT in H358 cells with pharmacological inhibitors (Western blot markers, morphology); conditions: inhibitor and ligand for 7 days; for EMT in OSM-induced models (markers and morphology): OSM alone or in combination
Description: EMD Biosciences #444937), JAK inhibitor 1 (“JAKi”; EMD Biosciences #420099), and LY294002 (PI3K inhibitor (PI3Ki); EMD Biosciences #440202) were used in the concentrations indicated. Cells were treated with inhibitor 30 minutes prior to ligand stimulation. Medium, inhibitor and ligand were refreshed on experimental day 3 to 4. Cell lines were treated as indicated in the text and figure legends. Cell lysates were prepared in RIPA buffer (Sigma, #R0278) containing protease (Sigma #P8340) and phosphatase (Sigma, #P5726) inhibitors. Protein concentration was determined by micro-BCA assay (Pierce, #23227). Protein immunodetection was performed by electrophoretic transfer of SDS-PAGE separated proteins to nitrocellulose, incubation with antibody and chemiluminescent second step detection (PicoWest; Pierce, #34078). The antibodies used were: E-cadherin (sc21791), N-cadherin (#7939), ErbB3 (sc285), GAPDH (#25778) and Zeb1 (#25388), all from Santa Cruz Biotechnology; vimentin (BD550513) and fibronectin (BD610077; both from BD Biosciences); β-actin (Sigma, #A5441).

H358 cells [2] = assay: TGFβ-induced EMT of H358 cells in 3D matrigel culture, with and without inhibitor; conditions: 10 μM SB431542, ligand TGFβ
Description: 3-Dimensional matrigel culture: Tissue culture wells were coated with a layer of matrigel of 1 mm depth or greater. H358 cells were plated on top of this in 2% matrigel with seeding density of 2,500-5000 cells/cm^2. Once the cell/matrigel layer had solidified, media was added and cultures were allowed to incubate overnight at 37° C. in a CO2 incubator before treatment of cells with ligand with and without addition of 10 μM SB431542 (Sigma-Aldrich, St. Louis, Mo.; product #S4317). Culture media, ligand with and without addition of 10 μM SB431542 was replenished every 3-4 days during the duration of the experiment.
Cells were plated on coverslips on experimental day 0, stimulated with ligand on day 1 and refreshed with medium and ligand on day 3-4. On day 7, cells were fixed at room temperature for 10 minutes in 4% paraformaldehyde (EMS #15701)/PBS (Gibco #14190). Cells were blocked in 3% BSA/PBS and incubated with primary antibody (E-cadherin, Santa Cruz #sc21791 and Vimentin, Chemicon #AB5733) diluted in blocking buffer for two hours at room temperature. Cells were washed and incubated in secondary antibody (Invitrogen #A11029 and Chemicon #AP194R) followed by nuclear counterstain TO-PRO3 (Invitrogen #T3605). Coverslips were mounted on slides with Pro-Long Gold anti-fade reagent (Invitrogen P36934). […]

H358 cells [3] = assay: Induction of EMT in H358 cells by growth factors and cytokines (immunoblot of EMT biomarkers); conditions: for induction of EMT in H358 cells: single ligand, 7 days
Description: The human line H358 was cultured in the appropriate ATCC recommended supplemented media. Growth factor and cytokine induced EMT was monitored over a 7-14 day period. Growth factors and cytokines were obtained from commercial sources and included TGFβ 10 ng/ml, Endothelin 100 nM, IL-4 5 ng/ml, IL-6 5 ng/ml, IL-8 5 ng/ml, VEGF 10 ng/ml, Stromal derived factor, 100 ng/ml, Epidermal derived factor 10 ng/ml, MMP2, 100 ng/ml, MMP7, 100 ng/ml, MMP9, 100 ng/ml, Collagen-I, 5 μg/cm2, Collagen-IV, 5 μg/cm2, Fibronectin, 1 μg/cm2, Laminin-I, 1 μg/cm2, Vitronectin, 0.1 μg/cm2, Polylysine, 100 mg/mL, HGF, 100 ng/mL, MSP, 100 ng/ml, IGF-1, 50 ng/mL, CSF-1, 100 ng/mL, ET1, 100 nM, SDF-1alpha, 100 ng/ml PGE2, 500 nM, LPA, 10 μM, S1P, 1 μM, TGFbeta1, 2.5 ng/mL, TNFalpha, 25 ng/mL, IL1beta, 2.5 ng/mL, IL6, 2 ng/mL, IL8, 0.5 ng/mL, WNT-1, 5 ng/mL, CTGF, 20 ng/ml, Trance, 50 ng/ml, FGF1, 10 ng/ml, FGF2, 10 ng/ml, BMP4, 100 ng/ml, BMP7, 100 ng/ml, IGF2, 100 ng/ml, Oncostatin M, 100 ng/ml, NRG1, 50 ng/ml, PDGF-AA, 50 ng/ml, PDGF-BB, 30 ng/ml, WISP1, 20 ng/ml, Fulvestrant, 1 μM, LIF, 20 ng/ml, IFN g, 50 ng/ml, HMG-B1, 50 ng/ml, M-CSF, 50 ng/ml, PTHrP, 50 ng/ml, MCP1, 50 ng/ml, IL-1a, 10 ng/ml, IL-33, 50 ng/ml, IL-31, 50 ng/ml, GM-CSF, 25 ng/ml, Angiopoeitin 2, 400 ng/ml, PAR1, 100 μM, PAR2, 100 μM, PAR4, 100 μM, Wnt5a, 200 ng/ml, G-CSF, 50 ng/ml, Amphiregulin, 100 ng/ml, CNTF, 25 ng/mL, Pleiotrophin, 25 ng/ml, Prolactin, 100 ng/ml, TRAIL, 100 ng/ml.
Cell lines were treated as indicated in the text and figure legends. Cell lysates were prepared in RIPA buffer (Sigma, #R0278) containing protease (Sigma #P8340) and phosphatase (Sigma, #P5726) inhibitors. Protein concentration was determined by micro-BCA assay (Pierce, #23227). Protein immunodetection was performed by electrophoretic transfer of SDS-PAGE separated proteins to nitrocellulose, incubation with antibody and chemiluminescent second step detection (PicoWest; Pierce, #34078). The antibodies used were: E-cadherin (sc21791), N-cadherin (#7939), ErbB3 (sc285), GAPDH (#25778) and Zeb1 (#25388), all from Santa Cruz Biotechnology; vimentin (BD550513) and fibronectin (BD610077; both from BD Biosciences); β-actin (Sigma, #A5441).

H358 cells [4] = assay: Immunofluorescence and confocal imaging of E-cadherin and vimentin in ligand-treated H358 cells; conditions: cells treated for 7 days
Description: Cells were plated on coverslips on experimental day 0, stimulated with ligand on day 1 and refreshed with medium and ligand on day 3-4. On day 7, cells were fixed at room temperature for 10 minutes in 4% paraformaldehyde (EMS #15701)/PBS (Gibco #14190). Cells were blocked in 3% BSA/PBS and incubated with primary antibody (E-cadherin, Santa Cruz #sc21791 and Vimentin, Chemicon #AB5733) diluted in blocking buffer for two hours at room temperature. Cells were washed and incubated in secondary antibody (Invitrogen #A11029 and Chemicon #AP194R) followed by nuclear counterstain TO-PRO3 (Invitrogen #T3605). Coverslips were mounted on slides with Pro-Long Gold anti-fade reagent (Invitrogen P36934). Images were captured on a Leica DMRXE microcope with SP2 scanner using Leica Confocal Software.

CC(C)(C)c1nc2c3cc[nH]c(=O)c3c3cc(F)ccc3c2[nH]1 [JAK inhibitor]
EMT in OSM-induced models (markers and morphology) (H358 cells [1]): blocked | EMT in OSM-induced models (markers and morphology) (H358 cells [1]; listed as JAKi): blocks | downregulation of E-cadherin induced by OSM, TGFβ, HGF+OSM and TGFβ+OSM (H358 cells [1]; Western blot): blocked | upregulation of vimentin by OSM, HGF+OSM and TGFβ+OSM (H358 cells [1]; Western blot): attenuated

NC(=O)c1ccc(-c2nc(-c3ccc4c(c3)OCO4)c(-c3ccccn3)[nH]2)cc1 [SB431542]
epithelial to mesenchymal transition induced by TGFβ (vimentin, E-cadherin) (H358 cells [2]): abrogated; also recorded: inhibited

EGF: epidermal growth factor, protein ligand
induction of EMT in H358 cells (H358 cells [3]): to a lesser extent

HGF: hepatocyte growth factor (Peprotech #100-39)
E-cadherin repression or vimentin induction as single agents (H358 cells [3]; seven day treatment of H358): neither HGF or OSM as single agents produced significant | extent of EMT at the single cell level (E-cadherin and vimentin expression and localization) (H358 cells [4]): partial EMT

TGFβ
E-cadherin expression (H358 cells [3]; seven day treatment of H358): marked decrease | vimentin expression (H358 cells [3]; seven day treatment of H358): robust increase | E-cadherin expression (H358 cells [3]; seven day treatment of H358, listed as TGF-beta): very substantial | induction of EMT in H358 cells (H358 cells [3]): most complete EMT | extent of EMT at the single cell level (E-cadherin and vimentin expression and localization) (H358 cells [4]): more complete EMT

TNFα
induction of EMT in H358 cells (H358 cells [3]): able to induce EMT
